Laboratory results taken from patent US20250243171A1, “QUINAZOLINE COMPOUNDS FOR TREATMENT OF DISEASE” (Arthrosi Therapeutics, Inc., priority 2021, published 2025).

Columns and labels:
Experiment in all cases: EC50 assay: Ba/F3 stable cell proliferation (CCK-8, 72 h)
Format in all cases: cell-based
Ba/F3 stable cells [1] = target: T1, Ba/F3 stable cells (Homo sapiens, UniProt P00533, T790M/L858R, cells depend on it); conditions: Ba/F3-EGFR L858R-T790M cells
T1 construct: EC50 Ba/F3-EGFR L858R-T790M; other: Ba/F3-EGFR L858R-T790M cells, 72 h, CCK-8
T1 sequence (P00533 whole entry T790M/L858R): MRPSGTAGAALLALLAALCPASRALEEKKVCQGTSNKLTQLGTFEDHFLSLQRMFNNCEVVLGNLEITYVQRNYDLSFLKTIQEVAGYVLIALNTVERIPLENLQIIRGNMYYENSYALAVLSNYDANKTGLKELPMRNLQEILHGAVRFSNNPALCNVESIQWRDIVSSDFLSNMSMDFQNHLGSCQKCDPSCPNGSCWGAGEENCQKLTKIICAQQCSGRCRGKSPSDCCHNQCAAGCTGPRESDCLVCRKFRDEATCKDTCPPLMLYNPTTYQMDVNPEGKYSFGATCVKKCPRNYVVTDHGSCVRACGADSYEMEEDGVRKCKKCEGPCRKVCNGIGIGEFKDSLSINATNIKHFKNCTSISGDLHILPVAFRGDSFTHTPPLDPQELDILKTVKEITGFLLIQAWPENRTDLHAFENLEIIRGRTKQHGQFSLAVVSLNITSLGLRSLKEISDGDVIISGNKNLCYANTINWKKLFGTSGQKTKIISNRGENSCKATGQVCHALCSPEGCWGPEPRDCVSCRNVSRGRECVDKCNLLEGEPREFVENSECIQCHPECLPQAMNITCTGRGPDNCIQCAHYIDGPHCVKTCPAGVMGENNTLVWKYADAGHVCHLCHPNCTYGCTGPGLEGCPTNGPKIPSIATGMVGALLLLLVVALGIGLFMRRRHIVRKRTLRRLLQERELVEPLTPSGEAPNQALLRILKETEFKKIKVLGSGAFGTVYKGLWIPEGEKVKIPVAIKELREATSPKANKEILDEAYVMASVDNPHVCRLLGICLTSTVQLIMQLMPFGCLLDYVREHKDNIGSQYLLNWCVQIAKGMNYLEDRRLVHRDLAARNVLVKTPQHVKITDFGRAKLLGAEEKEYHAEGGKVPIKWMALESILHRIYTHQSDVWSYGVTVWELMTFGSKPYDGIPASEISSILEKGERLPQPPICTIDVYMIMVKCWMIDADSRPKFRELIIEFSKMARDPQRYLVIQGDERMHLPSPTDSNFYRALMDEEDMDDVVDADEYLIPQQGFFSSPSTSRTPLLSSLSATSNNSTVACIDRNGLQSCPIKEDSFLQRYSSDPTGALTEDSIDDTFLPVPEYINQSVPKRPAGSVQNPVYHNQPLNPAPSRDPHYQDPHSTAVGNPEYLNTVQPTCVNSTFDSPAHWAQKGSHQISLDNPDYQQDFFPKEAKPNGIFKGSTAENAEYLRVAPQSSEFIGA
Summary of the method: (§1)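 Ba/F3 stable cells were seeded at 4,000 cells/90 μL/well in 96-well plates and held 2 h at 37° C. in 5% CO2, then given 10 μL of serially titrated compound (0.1% DMSO final). After 72 h at 37° C., CCK-8 reagent was added for 4 hours and absorbance read at 450 nm to derive EC50.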

Ba/F3 stable cells [2] = target: T2, Ba/F3 stable cells (Homo sapiens, UniProt P04626, DUP772-775, cells depend on it); conditions: Ba/F3-HER2 A775-G776insYVMA cells
T2 construct: EC50 Ba/F3-HER2 A775-G776insYVMA; other: Ba/F3-HER2 A775-G776insYVMA cells, 72 h, CCK-8
T2 sequence (P04626 with tags, fused parts or gaps DUP772-775): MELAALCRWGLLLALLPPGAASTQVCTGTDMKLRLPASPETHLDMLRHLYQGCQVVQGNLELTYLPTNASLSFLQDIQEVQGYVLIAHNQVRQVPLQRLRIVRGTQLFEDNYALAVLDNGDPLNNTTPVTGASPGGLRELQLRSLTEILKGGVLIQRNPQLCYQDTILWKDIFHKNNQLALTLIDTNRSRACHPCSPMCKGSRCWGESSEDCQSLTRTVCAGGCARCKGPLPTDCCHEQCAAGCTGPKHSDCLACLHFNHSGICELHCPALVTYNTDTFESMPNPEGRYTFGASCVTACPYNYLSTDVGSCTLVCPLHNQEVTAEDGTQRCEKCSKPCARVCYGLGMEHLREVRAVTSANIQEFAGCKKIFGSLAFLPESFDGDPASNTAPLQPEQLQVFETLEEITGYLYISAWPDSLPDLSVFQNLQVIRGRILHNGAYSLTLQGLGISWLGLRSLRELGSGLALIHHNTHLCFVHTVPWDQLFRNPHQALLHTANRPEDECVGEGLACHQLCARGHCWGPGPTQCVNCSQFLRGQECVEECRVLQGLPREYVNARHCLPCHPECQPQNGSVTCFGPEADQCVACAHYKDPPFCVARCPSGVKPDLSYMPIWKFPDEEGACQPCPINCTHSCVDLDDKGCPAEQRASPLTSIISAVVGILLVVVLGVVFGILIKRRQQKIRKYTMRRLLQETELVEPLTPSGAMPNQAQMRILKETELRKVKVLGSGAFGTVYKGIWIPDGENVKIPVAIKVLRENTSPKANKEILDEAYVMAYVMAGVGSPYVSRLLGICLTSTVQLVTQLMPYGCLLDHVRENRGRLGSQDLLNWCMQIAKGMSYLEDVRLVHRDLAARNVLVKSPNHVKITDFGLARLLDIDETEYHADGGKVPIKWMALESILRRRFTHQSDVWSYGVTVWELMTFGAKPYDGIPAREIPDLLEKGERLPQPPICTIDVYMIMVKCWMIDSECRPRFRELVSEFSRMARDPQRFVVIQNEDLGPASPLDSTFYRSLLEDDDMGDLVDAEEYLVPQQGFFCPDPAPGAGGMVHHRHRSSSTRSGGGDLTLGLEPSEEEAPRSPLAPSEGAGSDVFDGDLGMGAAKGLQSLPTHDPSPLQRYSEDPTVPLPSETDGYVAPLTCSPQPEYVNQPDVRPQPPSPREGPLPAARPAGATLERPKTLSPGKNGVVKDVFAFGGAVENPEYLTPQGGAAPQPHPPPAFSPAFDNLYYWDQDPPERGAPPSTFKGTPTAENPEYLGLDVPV
Summary of the method: as §1

Ba/F3 stable cells [3] = target: T3, Ba/F3 stable cells (Homo sapiens, UniProt P00533, DUP767-769, cells depend on it); conditions: Ba/F3-EGFR V769-D770insASV cells
T3 construct: EC50 Ba/F3-EGFR V769-D770insASV; other: Ba/F3-EGFR V769-D770insASV cells, 72 h, CCK-8
T3 sequence (P00533 with tags, fused parts or gaps DUP767-769): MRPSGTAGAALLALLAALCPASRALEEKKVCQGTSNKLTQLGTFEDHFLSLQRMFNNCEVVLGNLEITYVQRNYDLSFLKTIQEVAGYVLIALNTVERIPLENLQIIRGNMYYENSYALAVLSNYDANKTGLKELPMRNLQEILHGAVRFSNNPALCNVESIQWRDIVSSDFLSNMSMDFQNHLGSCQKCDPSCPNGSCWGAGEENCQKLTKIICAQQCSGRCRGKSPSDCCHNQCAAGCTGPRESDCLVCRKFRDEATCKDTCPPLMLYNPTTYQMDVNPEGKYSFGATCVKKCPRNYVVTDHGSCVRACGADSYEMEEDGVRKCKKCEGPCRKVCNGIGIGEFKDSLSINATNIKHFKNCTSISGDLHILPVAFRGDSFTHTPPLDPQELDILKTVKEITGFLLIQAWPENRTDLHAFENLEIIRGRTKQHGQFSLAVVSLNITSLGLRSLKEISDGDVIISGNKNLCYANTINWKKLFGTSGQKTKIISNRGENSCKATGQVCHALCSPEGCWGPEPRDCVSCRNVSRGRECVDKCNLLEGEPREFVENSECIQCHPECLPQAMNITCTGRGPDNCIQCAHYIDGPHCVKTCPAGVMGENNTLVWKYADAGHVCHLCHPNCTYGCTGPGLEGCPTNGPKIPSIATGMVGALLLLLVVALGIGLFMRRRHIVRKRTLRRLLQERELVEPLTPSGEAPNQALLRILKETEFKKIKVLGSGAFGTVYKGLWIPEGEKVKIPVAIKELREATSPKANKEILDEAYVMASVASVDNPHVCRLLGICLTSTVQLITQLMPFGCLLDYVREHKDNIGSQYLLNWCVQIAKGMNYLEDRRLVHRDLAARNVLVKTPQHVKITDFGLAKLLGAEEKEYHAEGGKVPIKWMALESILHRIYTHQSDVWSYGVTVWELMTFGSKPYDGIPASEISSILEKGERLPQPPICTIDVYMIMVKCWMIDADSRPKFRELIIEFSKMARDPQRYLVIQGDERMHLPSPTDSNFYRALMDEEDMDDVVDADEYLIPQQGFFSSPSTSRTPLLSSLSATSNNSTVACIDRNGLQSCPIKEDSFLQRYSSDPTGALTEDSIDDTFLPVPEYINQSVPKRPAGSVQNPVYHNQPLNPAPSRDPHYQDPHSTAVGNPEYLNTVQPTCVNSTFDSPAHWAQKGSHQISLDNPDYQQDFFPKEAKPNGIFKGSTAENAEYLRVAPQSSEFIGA
Summary of the method: as §1

Ba/F3 stable cells [4] = target: T4, Ba/F3 stable cells (Homo sapiens, UniProt P00533, DUP771-773, cells depend on it); conditions: Ba/F3-EGFR H773-V774insNPH cells
T4 construct: EC50 Ba/F3-EGFR H773-V774insNPH; other: Ba/F3-EGFR H773-V774insNPH cells, 72 h, CCK-8
T4 sequence (P00533 with tags, fused parts or gaps DUP771-773): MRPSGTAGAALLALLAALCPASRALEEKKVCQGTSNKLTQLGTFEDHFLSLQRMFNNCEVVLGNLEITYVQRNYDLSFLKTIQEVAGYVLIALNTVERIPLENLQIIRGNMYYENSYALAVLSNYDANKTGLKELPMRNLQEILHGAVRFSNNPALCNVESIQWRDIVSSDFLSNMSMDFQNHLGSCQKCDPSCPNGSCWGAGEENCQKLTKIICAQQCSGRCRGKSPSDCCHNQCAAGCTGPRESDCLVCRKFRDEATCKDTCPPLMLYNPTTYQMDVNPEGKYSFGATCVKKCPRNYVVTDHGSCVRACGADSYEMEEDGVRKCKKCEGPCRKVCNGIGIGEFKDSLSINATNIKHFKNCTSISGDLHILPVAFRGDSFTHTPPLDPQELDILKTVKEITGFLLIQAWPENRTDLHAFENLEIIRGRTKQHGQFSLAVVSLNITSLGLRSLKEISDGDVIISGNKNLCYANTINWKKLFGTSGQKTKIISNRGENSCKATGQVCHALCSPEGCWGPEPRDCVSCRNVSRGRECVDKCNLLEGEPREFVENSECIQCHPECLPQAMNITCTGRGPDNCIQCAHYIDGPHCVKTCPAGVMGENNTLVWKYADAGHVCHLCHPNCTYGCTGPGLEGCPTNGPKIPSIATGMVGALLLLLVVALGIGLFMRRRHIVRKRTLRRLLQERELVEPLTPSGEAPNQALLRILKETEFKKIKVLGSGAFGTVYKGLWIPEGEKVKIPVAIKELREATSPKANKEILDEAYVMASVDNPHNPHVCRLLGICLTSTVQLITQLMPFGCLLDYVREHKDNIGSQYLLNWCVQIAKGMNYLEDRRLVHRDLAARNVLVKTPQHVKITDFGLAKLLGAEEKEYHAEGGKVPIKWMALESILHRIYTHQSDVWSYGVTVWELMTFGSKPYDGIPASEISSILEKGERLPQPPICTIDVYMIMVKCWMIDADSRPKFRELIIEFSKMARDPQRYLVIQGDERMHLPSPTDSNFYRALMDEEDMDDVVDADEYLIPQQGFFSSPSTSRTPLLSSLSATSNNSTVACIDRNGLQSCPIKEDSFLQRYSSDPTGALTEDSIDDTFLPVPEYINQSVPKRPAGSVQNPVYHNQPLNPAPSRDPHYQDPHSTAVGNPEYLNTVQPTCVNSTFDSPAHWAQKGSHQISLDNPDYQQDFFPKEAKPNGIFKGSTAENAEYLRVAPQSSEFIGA
Summary of the method: as §1

Ba/F3 stable cells [5] = target: T5, Ba/F3 stable cells (Homo sapiens, UniProt P00533, INS763FQEA, cells depend on it); conditions: Ba/F3-EGFR A763-Y764insFQEA cells
T5 construct: EC50 Ba/F3-EGFR A763-Y764insFQEA; other: Ba/F3-EGFR A763-Y764insFQEA cells, 72 h, CCK-8
Summary of the method: as §1

Ba/F3 stable cells [6] = target: T6, Ba/F3 stable cells (Homo sapiens, UniProt P00533, DUP768-770, cells depend on it); conditions: Ba/F3-EGFR D770-N771insSVD cells
T6 construct: EC50 Ba/F3-EGFR D770-N771insSVD; other: Ba/F3-EGFR D770-N771insSVD cells, 72 h, CCK-8
Summary of the method: as §1

| Structure (SMILES) | EC50 (Ba/F3 stable cells [1]) [nM] | EC50 (Ba/F3 stable cells [2]) [nM] | EC50 (Ba/F3 stable cells [3]) [nM] | EC50 (Ba/F3 stable cells [4]) [nM] | EC50 (Ba/F3 stable cells [5]) [nM] | EC50 (Ba/F3 stable cells [6]) [nM] |
| --- | --- | --- | --- | --- | --- | --- |
| C=CC(=O)N1CCC(Oc2cc3c(C(=O)N[C@H](C)c4ccc(F)cc4)ncnc3cc2OC)CC1 [Compound 95, (R)-6-((1-acryloylpiperidin-4-yl)oxy)-N-(1-(4-fluorophenyl)ethyl)-7-methoxyquinazoline-4-carboxamide] | > 1000 | > 1000 | > 1000 | > 1000 | > 1000 | > 1000 |
| C=CC(=O)NC1CC(Oc2cc3c(C(=O)NCc4ccc(F)cc4)ncnc3cc2OC)C1 (stereo not drawn) [Compound 96, 6-(3-acrylamidocyclobutoxy)-N-(4-fluorobenzyl)-7-methoxyquinazoline-4-carboxamide] | > 1000 | > 1000 | > 1000 | > 1000 | > 1000 | > 1000 |
| C=CC(=O)N[C@H]1C[C@@H](Oc2cc3c(C(=O)N[C@H](C)c4ccc(F)cc4)ncnc3cc2OC)C1 [Compound 97, 6-((1s,3S)-3-acrylamidocyclobutoxy)-N-((R)-1-(4-fluorophenyl)ethyl)-7-methoxyquinazoline-4-carboxamide] | > 1000 | > 1000 | > 1000 | > 1000 | > 1000 | > 1000 |
| C=CC(=O)N1CCC(Oc2cc3c(NC(=O)c4ccc(F)cc4)ncnc3cc2OC)CC1 [Compound 98, N-(6-((1-acryloylpiperidin-4-yl)oxy)-7-methoxyquinazolin-4-yl)-4-fluorobenzamide] | > 1000 | > 1000 | > 1000 | > 1000 | 200 to 1000 | > 1000 |
| C=CC(=O)N[C@H]1C[C@@H](Oc2cc3c(Nc4ccc(Cl)c(Cl)c4F)ncnc3cc2O[C@H]2CCOC2)C1 [Compound 99, N-((1R,3s)-3-((4-((3,4-dichloro-2-fluorophenyl)amino)-7-(((S)-tetrahydrofuran-3-yl)oxy)quinazolin-6-yl)oxy)cyclobutyl)acrylamide] | ≤ 200 | ≤ 200 | ≤ 200 | ≤ 200 | ≤ 200 | 200 to 1000 |
| C=CC(=O)N[C@H]1C[C@@H](Oc2cc3c(Nc4ccc(Cl)c(Cl)c4F)ncnc3cc2OCCO)C1 [Compound 100, N-((1s,3s)-3-((4-((3,4-dichloro-2-fluorophenyl)amino)-7-(2-hydroxyethoxy)quinazolin-6-yl)oxy)cyclobutyl)acrylamide] | 200 to 1000 | 200 to 1000 | ≤ 200 | 200 to 1000 | ≤ 200 | 200 to 1000 |
| C=CC(=O)N[C@H]1C[C@@H](Oc2cc3c(Nc4ccc(Cl)c(Cl)c4F)ncnc3cc2OCCN(C)C)C1 [Compound 101, N-((1s,3s)-3-((4-((3,4-dichloro-2-fluorophenyl)amino)-7-(2-(dimethylamino)ethoxy)quinazolin-6-yl)oxy)cyclobutyl)acrylamide] | > 1000 | > 1000 | 200 to 1000 | > 1000 | ≤ 200 | > 1000 |
| [2H]C([2H])([2H])Oc1cc2ncnc(Nc3ccc(Cl)c(Cl)c3F)c2cc1O[C@H]1C[C@@H](NC(=O)C=C)C1 [Compound 102, N-((1s,3s)-3-((4-((3,4-dichloro-2-fluorophenyl)amino)-7-(methoxy-d3)quinazolin-6-yl)oxy)cyclobutyl)acrylamide] | ≤ 200 | ≤ 200 | ≤ 200 | ≤ 200 | ≤ 200 | ≤ 200 |
| C=CC(=O)N[C@H]1C[C@@H](Oc2cc3c(Nc4ccc(Cl)c(Cl)c4F)ncnc3cc2NC)C1 [Compound 103, N-((1s,3s)-3-((4-((3,4-dichloro-2-fluorophenyl)amino)-7-(methylamino)quinazolin-6-yl)oxy)cyclobutyl)acrylamide] | ≤ 200 | ≤ 200 | ≤ 200 | ≤ 200 | ≤ 200 | ≤ 200 |
| C=CC(=O)N[C@H]1C[C@@H](Oc2cc3c(Nc4ccc(Cl)c(Cl)c4F)ncnc3cc2OC2COC2)C1 [Compound 104, N-((1s,3s)-3-((4-((3,4-dichloro-2-fluorophenyl)amino)-7-(oxetan-3-yloxy)quinazolin-6-yl)oxy)cyclobutyl)acrylamide] | 200 to 1000 | 200 to 1000 | ≤ 200 | ≤ 200 | ≤ 200 | 200 to 1000 |
| C=CC(=O)N[C@H]1C[C@@H](Oc2cc3c(Nc4ccc(Cl)c(Cl)c4F)ncnc3cc2OCC)C1 [Compound 105, N-((1s,3s)-3-((4-((3,4-dichloro-2-fluorophenyl)amino)-7-ethoxyquinazolin-6-yl)oxy)cyclobutyl)acrylamide] | ≤ 200 | ≤ 200 | ≤ 200 | ≤ 200 | ≤ 200 | ≤ 200 |
| C=CC(=O)N1CCC(Oc2cc3c(NCc4cccc(Cl)c4)ncnc3cc2OC)CC1 [Compound 106, 1-(4-((4-((3-chlorobenzyl)amino)-7-methoxyquinazolin-6-yl)oxy)piperidin-1-yl)prop-2-en-1-one] | 200 to 1000 | ≤ 200 | ≤ 200 | ≤ 200 | ≤ 200 | ≤ 200 |
| C=CC(=O)N1CCC(Oc2cc3c(OCc4cccc(Cl)c4)ncnc3cc2OC)CC1 [Compound 107, 1-(4-((4-((3-chlorobenzyl)oxy)-7-methoxyquinazolin-6-yl)oxy)piperidin-1-yl)prop-2-en-1-one] | 200 to 1000 | > 1000 | 200 to 1000 | 200 to 1000 | ≤ 200 | 200 to 1000 |
| C=CC(=O)N1CCC(Oc2cc3c(NCc4ccc(Cl)cc4)ncnc3cc2OC)CC1 [Compound 108, 1-(4-((4-((4-chlorobenzyl)amino)-7-methoxyquinazolin-6-yl)oxy)piperidin-1-yl)prop-2-en-1-one] | > 1000 | > 1000 | > 1000 | 200 to 1000 | ≤ 200 | > 1000 |
| C=CC(=O)N1CCC(Oc2cc3c(NCc4ccc(Cl)cc4Cl)ncnc3cc2OC)CC1 [Compound 109, 1-(4-((4-((2,4-dichlorobenzyl)amino)-7-methoxyquinazolin-6-yl)oxy)piperidin-1-yl)prop-2-en-1-one] | > 1000 | > 1000 | > 1000 | > 1000 | 200 to 1000 | > 1000 |
| C=CC(=O)N1CCC(Oc2cc3c(NCc4ccccc4Cl)ncnc3cc2OC)CC1 [Compound 110, 1-(4-((4-((2-chlorobenzyl)amino)-7-methoxyquinazolin-6-yl)oxy)piperidin-1-yl)prop-2-en-1-one] | 200 to 1000 | ≤ 200 | ≤ 200 | ≤ 200 | ≤ 200 | 200 to 1000 |
| C=CC(=O)N1CCC(Oc2cc3c(NCc4cccc(F)c4)ncnc3cc2OC)CC1 [Compound 111, 1-(4-((4-((3-fluorobenzyl)amino)-7-methoxyquinazolin-6-yl)oxy)piperidin-1-yl)prop-2-en-1-one] | 200 to 1000 | ≤ 200 | ≤ 200 | ≤ 200 | ≤ 200 | 200 to 1000 |
